This is an account of results in ChEMBL document CHEMBL2429721, “Novel 2,6-bis(4-methoxyphenyl)-1-methylpiperidin-4-one oxime esters: synthesis and a new insight into their antioxidant and antimicrobial potential” (Med Chem Res, 2013).

Common to all, as to format: functional
The test system of test [1] is Candida albicans. The test is described as follows: Antifungal activity against Candida albicans MTCC 3017 assessed as growth inhibition at 500 ug/mL after 72 hrs by agar well plate method. As to conditions: MTCC 3017, 72 h, read-out: DIZ.
Test [2] relates to Candida albicans. The test is described as follows: Antifungal activity against Candida albicans MTCC 3017 assessed as growth inhibition at 1000 ug/mL after 72 hrs by agar well plate method. As to conditions: MTCC 3017, 72 h, read-out: DIZ.
Test [3] is described as follows: Antifungal activity against Chrysosporium keratinophilum MTCC 2827 assessed as growth inhibition at 500 ug/mL after 72 hrs by agar well plate method.
Test [4] has as its system Pseudomonas aeruginosa. The test is described as follows: Antibacterial activity against Pseudomonas aeruginosa ATCC 27853 assessed as growth inhibition at 500 ug/mL after 24 hrs by agar well plate method. To be noted: ATCC 27853, 24 h, read-out: DIZ.
For test [5], the system named is Pseudomonas aeruginosa. Description: Antibacterial activity against Pseudomonas aeruginosa ATCC 27853 assessed as growth inhibition at 1000 ug/mL after 24 hrs by agar well plate method. To be noted: ATCC 27853, 24 h, read-out: DIZ.
Test [6] deals with Staphylococcus aureus. The test is described as follows: Antibacterial activity against Staphylococcus aureus ATCC 25923 assessed as growth inhibition at 500 ug/mL after 24 hrs by agar well plate method. To be noted: ATCC 25923, 24 h, read-out: DIZ.
Test [7] has as its system Staphylococcus aureus. The test is described as follows: Antibacterial activity against Staphylococcus aureus ATCC 25923 assessed as growth inhibition at 1000 ug/mL after 24 hrs by agar well plate method. As to conditions: ATCC 25923, 24 h, read-out: DIZ.
For test [8], the system named is Escherichia coli. Description: Antibacterial activity against Escherichia coli ATCC 25922 assessed as growth inhibition at 500 ug/mL after 24 hrs by agar well plate method. To be noted: ATCC 25922, 24 h, read-out: DIZ.
The subject of test [9] is Escherichia coli. The test is described as follows: Antibacterial activity against Escherichia coli ATCC 25922 assessed as growth inhibition at 1000 ug/mL after 24 hrs by agar well plate method. As to conditions: ATCC 25922, 24 h, read-out: DIZ.
Test [10] is described as follows: Antioxidant activity assessed as cupric ion reducing activity at 10 uM after 30 mins by CUPRAC assay.
A short description of test [11]: Antioxidant activity assessed as ferric ion reducing activity at 10 uM after 20 mins by FRAP assay.
The nature of test [12]: Antioxidant activity assessed as ABTS free radical scavenging activity after 30 mins.
In test [13] the test system is Radical scavenging activity. The test is described as follows: Antioxidant activity assessed as DPPH free radical scavenging activity after 20 mins by UV-visible spectrophotometric analysis. A general note: DPPH is a stable violet radical that fades when it is reduced.
Test [14] relates to Aspergillus flavus. Description: Antifungal activity against Aspergillus flavus MTCC 3306 assessed as growth inhibition at 1000 ug/mL after 72 hrs by agar well plate method. To be noted: MTCC 3306, 72 h, read-out: DIZ.
For test [15], the system named is Aspergillus flavus. The test is described as follows: Antifungal activity against Aspergillus flavus MTCC 3306 assessed as growth inhibition at 500 ug/mL after 72 hrs by agar well plate method. As to conditions: MTCC 3306, 72 h, read-out: DIZ.
The nature of test [16]: Antifungal activity against Chrysosporium keratinophilum MTCC 2827 assessed as growth inhibition at 1000 ug/mL after 72 hrs by agar well plate method.

pIC50: −log10 of the molar value.

Turning to `COc1ccc(C2CC(=NO)CC(c3ccc(OC)cc3)N2C)cc1` (centres undefined), the zone of inhibition at 500 µg/mL was determined as 1 mm with Candida albicans [1]; 0 mm in the test on Pseudomonas aeruginosa [4]; 0 mm in the test on Staphylococcus aureus [6]; 0 mm with Escherichia coli [8]; 0 mm with Aspergillus flavus [15]. Further, the zone of inhibition at 1000 µg/mL with Candida albicans [2], in the test on Pseudomonas aeruginosa [5], in the test with Staphylococcus aureus [7], in the test on Escherichia coli [9] and in the test with Aspergillus flavus [14] was 1 mm in each case. Further, the inhibition zone (IZ) in [3] and in [16] was 1 mm each time. Moreover, the figures for the Activity in [10] and in test [11] were 0.164 and 0.127, respectively. For the same compound, the figures for the pIC50 in [12] and in test [13] were 3.42 and 3.78, respectively.

With `COc1ccc(C2CC(=NOC(=O)c3ccc(Cl)cc3)CC(c3ccc(OC)cc3)N2C)cc1` (centres undefined), the zone of inhibition at 500 µg/mL in the test with Candida albicans [1] came out at 10 mm; in the test on Pseudomonas aeruginosa [4], 12 mm; with Staphylococcus aureus [6], 8 mm; with Escherichia coli [8], 10 mm; in the test with Aspergillus flavus [15] it was 5 mm. The zone of inhibition at 1000 µg/mL is 11 mm with Candida albicans [2]; 16 mm in the test on Pseudomonas aeruginosa [5]; 12 mm in the test on Staphylococcus aureus [7]; 16 mm with Escherichia coli [9]; 8 mm with Aspergillus flavus [14]. The inhibition zone (IZ) in test [3] came to 7 mm; in test [16], 8 mm. For the same compound, the Activity was 0.192 in [10] and 0.258 in [11]. Besides, the results for the pIC50 in test [12] and in [13] were 3.87 and 4.01, respectively.

Take `COc1ccc(C2CC(=NOC(=O)c3ccccc3)CC(c3ccc(OC)cc3)N2C)cc1` (centres undefined): the zone of inhibition at 500 µg/mL is 2 mm in the test on Candida albicans [1]; 1 mm in the test with Pseudomonas aeruginosa [4]; 2 mm with Staphylococcus aureus [6]; 1 mm in the test on Escherichia coli [8]; 1 mm in the test with Aspergillus flavus [15]. Moreover, the zone of inhibition at 1000 µg/mL in the test with Candida albicans [2] was 3 mm; with Pseudomonas aeruginosa [5], 2 mm; with Staphylococcus aureus [7] it was 3 mm; in the test on Escherichia coli [9], 2 mm; with Aspergillus flavus [14] it was 1 mm. Also, the inhibition zone (IZ) was 1 mm in test [3] and 2 mm in test [16]. In addition, the Activity in test [10] stood at 0.111; in test [11], 0.132. Also, the pIC50 – broadly, the IC50 on a negative log10 scale, so that one unit is a factor of ten – in test [12] was 3.43; in test [13], 3.82.

Regarding `COc1ccc(C2CC(=NOC(=O)c3ccc([N+](=O)[O-])cc3)CC(c3ccc(OC)cc3)N2C)cc1` (centres undefined), the zone of inhibition at 500 µg/mL was 7 mm with Candida albicans [1]; 5 mm in the test on Pseudomonas aeruginosa [4]; 3 mm in the test with Staphylococcus aureus [6]; 3 mm in the test with Escherichia coli [8]; 2 mm in the test on Aspergillus flavus [15]. For the same compound, the zone of inhibition at 1000 µg/mL is 6 mm in the test with Candida albicans [2]; 8 mm in the test on Pseudomonas aeruginosa [5]; 7 mm with Staphylococcus aureus [7]; 7 mm in the test on Escherichia coli [9]; 3 mm in the test with Aspergillus flavus [14]. Moreover, the inhibition zone (IZ) was 3 mm in test [3] and 4 mm in test [16]. Moreover, the Activity is 0.157 in [10] and 0.216 in test [11]. The values for the pIC50 in [12] and in test [13] were 3.55 and 3.92, respectively.

Regarding `COc1ccc(C2CC(=NOC(=O)c3ccc(F)cc3)CC(c3ccc(OC)cc3)N2C)cc1` (centres undefined), the zone of inhibition at 500 µg/mL is 10 mm in the test on Candida albicans [1]; 15 mm with Pseudomonas aeruginosa [4]; 9 mm in the test on Staphylococcus aureus [6]; 12 mm in the test on Escherichia coli [8]; 10 mm with Aspergillus flavus [15]. Also, the zone of inhibition at 1000 µg/mL in the test with Candida albicans [2] was determined as 16 mm; in the test on Pseudomonas aeruginosa [5] it was 19 mm; with Staphylococcus aureus [7] it was 13 mm; with Escherichia coli [9], 17 mm; in the test with Aspergillus flavus [14], 12 mm. Moreover, the inhibition zone (IZ) in [3] was 7 mm; in test [16] it was 9 mm. Also, the Activity is 0.163 in test [10] and 0.236 in test [11]. Besides, the pIC50 in test [12] was 3.82; in [13], 4.07.

As for `CN[C@@H]1[C@H](O[C@H]2[C@H](O[C@H]3[C@H](O)[C@@H](O)[C@H](N=C(N)N)[C@@H](O)[C@@H]3N=C(N)N)O[C@@H](C)[C@]2(O)C=O)O[C@@H](CO)[C@H](O)[C@H]1O` [STREPTOMYCIN], the figures for the zone of inhibition at 500 µg/mL in the test with Pseudomonas aeruginosa [4], in the test on Staphylococcus aureus [6] and with Escherichia coli [8] were 13 mm, 10 mm and 10 mm, respectively. In addition, the zone of inhibition at 1000 µg/mL with Pseudomonas aeruginosa [5] worked out at 16 mm; in the test with Staphylococcus aureus [7], 15 mm; with Escherichia coli [9], 16 mm.

Take `OC(Cn1cncn1)(Cn1cncn1)c1ccc(F)cc1F` [FLUCONAZOLE]: the zone of inhibition at 500 µg/mL stood at 20 mm in the test with Candida albicans [1] and 11 mm in the test on Aspergillus flavus [15]. Besides, the figures for the zone of inhibition at 1000 µg/mL in the test with Candida albicans [2] and in the test on Aspergillus flavus [14] were 22 mm and 13 mm, respectively. The inhibition zone (IZ) came out at 15 mm in test [3] and 17 mm in test [16].

Regarding `COc1ccc(C2CC(=NOC(=O)c3ccc(C)cc3)CC(c3ccc(OC)cc3)N2C)cc1` (centres undefined), the zone of inhibition at 500 µg/mL with Candida albicans [1] stood at 1 mm; with Pseudomonas aeruginosa [4] it was 2 mm; in the test on Staphylococcus aureus [6], 1 mm; in the test with Escherichia coli [8], 1 mm; with Aspergillus flavus [15] it was 1 mm. Further, the zone of inhibition at 1000 µg/mL with Candida albicans [2] is 2 mm; with Pseudomonas aeruginosa [5], 2 mm; in the test with Staphylococcus aureus [7], 3 mm; in the test on Escherichia coli [9], 3 mm; in the test with Aspergillus flavus [14], 2 mm. The inhibition zone (IZ) in [3] is 2 mm; in test [16] it was 1 mm. Moreover, the Activity came out at 0.127 in test [10] and 0.154 in [11]. Moreover, the pIC50 in test [12] is 3.43; in [13] it was 3.84.

As for `COc1ccc(C2CC(=NOC(=O)c3cc([N+](=O)[O-])cc([N+](=O)[O-])c3)CC(c3ccc(OC)cc3)N2C)cc1` (centres undefined), the zone of inhibition at 500 µg/mL in the test on Candida albicans [1] was found to be 3 mm; with Pseudomonas aeruginosa [4] it was 6 mm; in the test with Staphylococcus aureus [6] it was 3 mm; in the test with Escherichia coli [8] it was 4 mm; in the test on Aspergillus flavus [15], 3 mm. The zone of inhibition at 1000 µg/mL with Candida albicans [2] amounted to 8 mm; in the test with Pseudomonas aeruginosa [5] it was 9 mm; in the test on Staphylococcus aureus [7], 6 mm; with Escherichia coli [9] it was 9 mm; with Aspergillus flavus [14] it was 4 mm. Besides, the inhibition zone (IZ) in [3] and in test [16] was 5 mm throughout. Also, the Activity was found to be 0.145 in test [10] and 0.195 in test [11]. The figures for the pIC50 in [12] and in test [13] were 3.51 and 3.90, respectively.
